{"source": "ChEMBL document CHEMBL1158325", "about": "“Norditerpenoids and diterpenoids from Salvia multicaulis with antituberculous activity” (1997)", "assay_type_in_all_cases": "functional", "key": {"[1]": {"system": "Mycobacterium tuberculosis", "test": "Antitubercular activity against Mycobacterium tuberculosis H37Rv after 21 days by broth microdilution method", "conditions": "504 h"}, "[2]": {"system": "Klebsiella pneumoniae", "test": "Antibacterial activity against Klebsiella pneumoniae ATCC 4352 by disk diffusion method"}, "[3]": {"system": "Streptococcus", "test": "Antibacterial activity against beta-haemolyticus Streptococcus isolate by tube dilution method"}, "[4]": {"system": "Escherichia coli", "test": "Antibacterial activity against Escherichia coli ATCC 8739 by tube dilution method"}, "[5]": {"system": "Streptococcus", "test": "Antibacterial activity against beta-haemolyticus Streptococcus isolate by disk diffusion method"}, "[6]": {"system": "Escherichia coli", "test": "Antibacterial activity against Escherichia coli ATCC 8739 by disk diffusion method"}, "[7]": {"system": "Staphylococcus aureus", "test": "Antibacterial activity against Staphylococcus aureus ATCC 6538 by disk diffusion method"}, "[8]": {"system": "Proteus mirabilis", "test": "Antibacterial activity against Proteus mirabilis ATCC 14153 by tube dilution method"}, "[9]": {"system": "Staphylococcus aureus", "test": "Antibacterial activity against Staphylococcus aureus ATCC 6538 by tube dilution method"}, "[10]": {"system": "Pseudomonas aeruginosa", "test": "Antibacterial activity against Pseudomonas aeruginosa ATCC 9027 by disk diffusion method"}, "[11]": {"system": "Enterococcus faecalis", "test": "Antibacterial activity against Enterococcus faecalis ATCC 29212 by disk diffusion method"}, "[12]": {"system": "Proteus mirabilis", "test": "Antibacterial activity against Proteus mirabilis ATCC 14153 by disk diffusion method"}, "[13]": {"system": "Enterococcus faecalis", "test": "Antibacterial activity against Enterococcus faecalis ATCC 29212 by tube dilution method"}, "[14]": {"system": "Pseudomonas aeruginosa", "test": "Antibacterial activity against Pseudomonas aeruginosa ATCC 9027 by tube dilution method"}, "[15]": {"system": "Klebsiella pneumoniae", "test": "Antibacterial activity against Klebsiella pneumoniae ATCC 4352 by tube dilution method"}}, "note": "Active and inactive are the calls of the source. The rule behind the calls is not given here."}
{"smiles": "Nc1ccc(C(=O)O)c(O)c1", "note": "[AMINOSALICYLIC ACID]", "values": [{"measurement": "MIC", "setting": "[1]", "result": 5, "unit": "µg/mL"}]}
{"smiles": "COc1cc2c(ccc3c(C)c(C)ccc32)cc1C(C)C", "note": "[MULTICAULIN]", "values": [{"measurement": "Activity", "setting": "[2]", "result": "inactive"}, {"measurement": "MIC", "setting": "[3]", "result": 0.2, "unit": "µg/mL"}, {"measurement": "MIC", "setting": "[4]", "result": 0.7, "unit": "µg/mL"}, {"measurement": "inhibition zone (IZ)", "setting": "[5]", "result": ">7", "unit": "mm"}, {"measurement": "inhibition zone (IZ)", "setting": "[6]", "result": ">7", "unit": "mm"}, {"measurement": "inhibition zone (IZ)", "setting": "[7]", "result": ">7", "unit": "mm"}, {"measurement": "MIC", "setting": "[8]", "result": 1.4, "unit": "µg/mL"}, {"measurement": "MIC", "setting": "[9]", "result": 0.2, "unit": "µg/mL"}, {"measurement": "MIC", "setting": "[1]", "result": 5.6, "unit": "µg/mL"}, {"measurement": "Activity", "setting": "[10]", "result": "inactive"}, {"measurement": "Activity", "setting": "[11]", "result": "inactive"}, {"measurement": "inhibition zone (IZ)", "setting": "[12]", "result": ">7", "unit": "mm"}]}
{"smiles": "Cc1c(O)cc2c3c(ccc2c1C)C=C(C(C)C)C(=O)C3=O", "note": "[DEMETHYLMULTIORTHOQUINONE]", "values": [{"measurement": "Activity", "setting": "[2]", "result": "inactive"}, {"measurement": "MIC", "setting": "[4]", "result": 4.6, "unit": "µg/mL"}, {"measurement": "Activity", "setting": "[5]", "result": "inactive"}, {"measurement": "inhibition zone (IZ)", "setting": "[6]", "result": ">7", "unit": "mm"}, {"measurement": "Activity", "setting": "[7]", "result": "inactive"}, {"measurement": "MIC", "setting": "[1]", "result": 1.2, "unit": "µg/mL"}, {"measurement": "Activity", "setting": "[10]", "result": "inactive"}, {"measurement": "Activity", "setting": "[11]", "result": "inactive"}, {"measurement": "Activity", "setting": "[12]", "result": "inactive"}]}
{"smiles": "COC1=C(C(C)C)C(=O)C2=C(C1=O)[C@@]1(C)CCCC(C)(C)C1=C[C@H]2O", "values": [{"measurement": "MIC", "setting": "[1]", "result": 1.2, "unit": "µg/mL"}]}
{"smiles": "CO[C@H]1/C=C/O[C@@]2(C)Oc3c(C)c(O)c4c(O)c(c(/C=N/N5CCN(C)CC5)c(O)c4c3C2=O)NC(=O)/C(C)=C\\C=C\\[C@H](C)[C@H](O)[C@@H](C)[C@@H](O)[C@@H](C)[C@H](OC(C)=O)[C@@H]1C", "note": "[RIFAMPIN]", "values": [{"measurement": "MIC", "setting": "[1]", "result": 0.5, "unit": "µg/mL"}]}
{"smiles": "C=C[C@]1(C)C=C2[C@@H](O)C[C@H]3C(C)(C)C(=O)CC[C@]3(C)[C@]2(O)C(=O)C1", "note": "[SALVIPIMARONE]", "values": [{"measurement": "Activity", "setting": "[2]", "result": "inactive"}, {"measurement": "Activity", "setting": "[5]", "result": "inactive"}, {"measurement": "MIC", "setting": "[13]", "result": 3.6, "unit": "µg/mL"}, {"measurement": "Activity", "setting": "[6]", "result": "inactive"}, {"measurement": "Activity", "setting": "[7]", "result": "inactive"}, {"measurement": "MIC", "setting": "[8]", "result": 3.6, "unit": "µg/mL"}, {"measurement": "MIC", "setting": "[1]", "result": 7.3, "unit": "µg/mL"}, {"measurement": "Activity", "setting": "[10]", "result": "inactive"}, {"measurement": "Activity", "setting": "[11]", "result": "inactive"}, {"measurement": "inhibition zone (IZ)", "setting": "[12]", "result": ">7", "unit": "mm"}]}
{"smiles": "CN[C@@H]1[C@H](O[C@H]2[C@H](O[C@H]3[C@H](O)[C@@H](O)[C@H](N=C(N)N)[C@@H](O)[C@@H]3N=C(N)N)O[C@@H](C)[C@]2(O)C=O)O[C@@H](CO)[C@H](O)[C@H]1O", "note": "[STREPTOMYCIN]", "values": [{"measurement": "MIC", "setting": "[1]", "result": 2, "unit": "µg/mL"}]}
{"smiles": "COc1cc2c3c(ccc2c(C)c1C)C=C(C(C)C)C(=O)C3=O", "note": "[MULTIORTHOQUINONE]", "values": [{"measurement": "Activity", "setting": "[2]", "result": "inactive"}, {"measurement": "MIC", "setting": "[3]", "result": 0.1, "unit": "µg/mL"}, {"measurement": "MIC", "setting": "[14]", "result": 0.5, "unit": "µg/mL"}, {"measurement": "inhibition zone (IZ)", "setting": "[5]", "result": ">7", "unit": "mm"}, {"measurement": "MIC", "setting": "[13]", "result": 2, "unit": "µg/mL"}, {"measurement": "Activity", "setting": "[6]", "result": "inactive"}, {"measurement": "inhibition zone (IZ)", "setting": "[7]", "result": ">7", "unit": "mm"}, {"measurement": "MIC", "setting": "[9]", "result": 0.1, "unit": "µg/mL"}, {"measurement": "MIC", "setting": "[1]", "result": 2, "unit": "µg/mL"}, {"measurement": "inhibition zone (IZ)", "setting": "[10]", "result": ">7", "unit": "mm"}, {"measurement": "inhibition zone (IZ)", "setting": "[11]", "result": ">7", "unit": "mm"}, {"measurement": "Activity", "setting": "[12]", "result": "inactive"}]}
{"smiles": "Cc1ccc2c(ccc3cc(C(C)C)c(O)cc32)c1C", "values": [{"measurement": "inhibition zone (IZ)", "setting": "[2]", "result": ">7", "unit": "mm"}, {"measurement": "MIC", "setting": "[3]", "result": 2, "unit": "µg/mL"}, {"measurement": "MIC", "setting": "[14]", "result": 15.6, "unit": "µg/mL"}, {"measurement": "inhibition zone (IZ)", "setting": "[5]", "result": ">7", "unit": "mm"}, {"measurement": "Activity", "setting": "[6]", "result": "inactive"}, {"measurement": "MIC", "setting": "[15]", "result": 15.6, "unit": "µg/mL"}, {"measurement": "Activity", "setting": "[7]", "result": "inactive"}, {"measurement": "MIC", "setting": "[1]", "result": 0.46, "unit": "µg/mL"}, {"measurement": "inhibition zone (IZ)", "setting": "[10]", "result": ">7", "unit": "mm"}, {"measurement": "Activity", "setting": "[11]", "result": "inactive"}, {"measurement": "Activity", "setting": "[12]", "result": "inactive"}]}
{"smiles": "CCc1cc(C(N)=S)ccn1", "note": "[ETHIONAMIDE]", "values": [{"measurement": "MIC", "setting": "[1]", "result": 5, "unit": "µg/mL"}]}
{"smiles": "NC[C@H]1O[C@H](O[C@H]2[C@H](O)[C@@H](O[C@H]3O[C@H](CO)[C@@H](O)[C@H](N)[C@H]3O)[C@H](N)C[C@@H]2N)[C@H](O)[C@@H](O)[C@@H]1O", "note": "[KANAMYCIN]", "values": [{"measurement": "MIC", "setting": "[1]", "result": 5, "unit": "µg/mL"}]}
{"smiles": "CC[C@@H](CO)NCCN[C@@H](CC)CO", "note": "[ETHAMBUTOL]", "values": [{"measurement": "MIC", "setting": "[1]", "result": 5, "unit": "µg/mL"}]}
{"smiles": "NNC(=O)c1ccncc1", "note": "[ISONIAZID]", "values": [{"measurement": "MIC", "setting": "[1]", "result": 0.2, "unit": "µg/mL"}]}
{"smiles": "COC1=C(C(C)C)C(=O)C2=C(C1=O)[C@@]1(C)CCCC(C)(C)C1=C[C@H]2OC(C)=O", "values": [{"measurement": "inhibition zone (IZ)", "setting": "[2]", "result": ">7", "unit": "mm"}, {"measurement": "Activity", "setting": "[5]", "result": "inactive"}, {"measurement": "Activity", "setting": "[6]", "result": "inactive"}, {"measurement": "MIC", "setting": "[15]", "result": 7.2, "unit": "µg/mL"}, {"measurement": "Activity", "setting": "[7]", "result": "inactive"}, {"measurement": "MIC", "setting": "[1]", "result": 0.89, "unit": "µg/mL"}, {"measurement": "Activity", "setting": "[10]", "result": "inactive"}, {"measurement": "Activity", "setting": "[11]", "result": "inactive"}, {"measurement": "Activity", "setting": "[12]", "result": "inactive"}]}
